Experimental data published in PMC6934184, “Selective DNA-PKcs inhibition extends the therapeutic index of localized radiotherapy and chemotherapy” (The Journal of Clinical Investigation, 2019).

Molecular target: T1, PAK2 (PAK65) (Homo sapiens, UniProt Q13177)
T1 construct: purchased Thermo Fisher Scientific (Life Technologies) SelectScreen
Assay: SelectScreen Z'LYTE
Type: biochemical
In short: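 NU5455 was profiled across the SelectScreen Broad panel of kinase activity and binding assays. Z'LYTE reactions such as CSF1R ran at apparent Km ATP, while the Adapta CAMK1 assay used ATP listed as 10. Values are given as percent.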

T1 sequence (Q13177 whole entry): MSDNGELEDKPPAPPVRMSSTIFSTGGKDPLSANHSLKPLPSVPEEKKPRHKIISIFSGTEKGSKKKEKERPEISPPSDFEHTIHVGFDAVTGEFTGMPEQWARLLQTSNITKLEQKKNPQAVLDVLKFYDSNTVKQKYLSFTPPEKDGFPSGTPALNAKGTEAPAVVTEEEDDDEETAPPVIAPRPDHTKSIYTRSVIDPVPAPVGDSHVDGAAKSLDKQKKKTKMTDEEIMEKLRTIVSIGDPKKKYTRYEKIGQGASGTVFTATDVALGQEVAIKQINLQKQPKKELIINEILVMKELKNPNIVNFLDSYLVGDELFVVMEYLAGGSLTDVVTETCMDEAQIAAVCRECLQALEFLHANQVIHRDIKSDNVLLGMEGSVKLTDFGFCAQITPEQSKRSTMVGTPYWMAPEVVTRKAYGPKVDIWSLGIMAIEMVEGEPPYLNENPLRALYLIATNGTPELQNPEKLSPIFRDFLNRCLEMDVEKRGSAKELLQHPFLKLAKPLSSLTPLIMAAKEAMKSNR

`CN(C(=O)CN1CCOCC1)c1ccc2sc3c(-c4cccc5c(=O)cc(N6CC7CCC(C6)O7)oc45)cccc3c2c1` [NU5455] showed an inhibition at 1 µM of 4%.
